Results from US11485713B2, “Androgen receptor modulators and methods for their use” (ESSA Pharma, Inc., priority 2018, dated 2022).
Where a name gives a salt, the structure may show the parent alone.

Key:
[1] = test system: LNCaP ARE-Luc; test: Luciferase assay in LNCaP cell lysates (LNCaP ARE-Luc); assay type: cell-based; conditions: Homo sapiens, Firefly Luciferase Assay System, read-out: LNCaP ARE-Luc % inhibition IC50 Ranges
Description: Lysates were thawed on ice then collected into V-bottom 96-well tissue culture plates. Lysates were centrifuged at 4° C. for 5 minutes at 4000 rpm. To measure luminescence of LNCaP cell lysates the Firefly Luciferase Assay System (Promega) was employed, according to manufacturer's protocol. Relative luminescence units (RLU) in cell lysates were detected for 10 seconds using Promega GoMax-Multi Detection Luminometer (Promega).
Statistical analyses were performed using GraphPad Prism (Version 6.01 for Windows; La Jolla, Calif., USA). Comparisons between treatment and control groups were compared using Two-Way ANOVA with post-hoc Dunnett's and Tukey's tests. Differences were considered statistically significant at P values less than 0.05. Densitometric quantification of relative AR levels was determined by Image.

[2] = Microsomal stability assay, MLM; assay type: in vitro ADME; conditions: mouse, pH 7.4, 1 μM test compound, 0.5 mg/mL liver microsomes protein, 37° C., 0-60 min, read-out: MLM +/− NADPH: Clint (μL/min/mg protein)
Text: (§1) Microsomal Stability Assay: Microsomal stability assay is a widely used in vitro model to characterize the metabolic conversion by phase I enzymes, such as cytochrome P450 (CYP) enzymes. Since metabolism is known to be highly variable in different species, microsomal stability assay is commonly run in multiple species. Metabolic stability of testing compound can be evaluated using human, rat, mouse, or other animal liver or intestine microsomes to predict intrinsic clearance.
(§2) The assay was carried out in 96-well microtiter plates at 37° C. Reaction mixtures (25 μL) contained a final concentration of 1 μM test compound, 0.5 mg/mL liver microsomes protein, and 1 mM NADPH and/or 1 mM UDPGA (with alamethicin) in 100 mM potassium phosphate, pH 7.4 buffer with 3 mM MgCl2. The incubation was done with N=1, but duplicate incubation at each time point can be prepared if necessary. At each of the time points (for example, 0, 15, 30, and 60 minutes), 150 μL of quench solution (100% acetonitrile with 0.1% formic acid) with internal standard was transferred to each well. Besides the zero minute controls, mixtures containing the same components except the NADPH can also be prepared as the negative control. Verapamil was included as a positive control to verify assay performance. Plates were sealed, vortexed, and centrifuged at 4° C. for 15 minutes at 4000 rpm. The supernatant is transferred to fresh plates for LC/MS/MS analysis.
(§3) Summarized conditions: [Compound]=1 μM, [LM]=0.5 mg/mL, [NADPH]=1 mM and/or [UDPGA]=1 mM, Buffer=100 mM Potassium Phosphate, pH 7.4 with 3 mM MgCl2, Time=0, 15, 30, and 60 min, and Temperature=37° C.
(§4) All samples were analyzed on LC/MS/MS using an AB Sciex API 4000 instrument, coupled to a Shimadzu LC-20AD LC Pump system. Analytical samples were separated using a Waters Atlantis T3 dC18 reverse phase HPLC column (20 mm×2.1 mm) at a flow rate of 0.5 mL/min. The mobile phase consisted of 0.1% formic acid in water (solvent A) and 0.1% formic acid in 100% acetonitrile (solvent B).
(§5) The extent of metabolism is calculated as the disappearance of the test compound, compared to the 0-min time incubation. Initial rates are calculated for the compound concentration and used to determine half-life (t½) values and subsequently, the intrinsic clearance (Clint). Clint=(0.693)(1/t½ (min))(g of liver/kg of body weight)(mL incubation/mg of microsomal protein)(45 mg of microsomal protein/g of liver weight)

[3] = Microsomal stability assay, HLM; assay type: in vitro ADME; conditions: human, pH 7.4, 1 μM test compound, 0.5 mg/mL liver microsomes protein, 37° C., 0-60 min, read-out: HLM +/− NADPH: Clint (μL/min/mg protein)
Text: as §1, §2, §3, §4, §5

| SMILES | IC50 [1] [nM] | microsomal CLint at 1 μM [2] [µL/min/mg] | microsomal CLint at 1 μM [3] [µL/min/mg] |
| --- | --- | --- | --- |
| CC(C)(c1ccc(OCC(N)=O)cc1)c1cc(Cl)c(OCCCCl)c(Cl)c1 [Compound A42] | ≥ 250 | < 12 | 12 to 48 |
| CC(C)(c1ccc(OCCCCl)cc1)c1ccc(OCC(=O)CNS(C)(=O)=O)c(Cl)c1 [Compound A13] | ≥ 250 | ≥ 48 | ≥ 48 |
| CC(C)(c1ccc(OCC(=O)CNS(C)(=O)=O)cc1)c1cc(Cl)c(OCc2cccc(Cl)c2)c(Cl)c1 [Compound A37] | ≥ 250 | ≥ 48 | ≥ 48 |
| Cc1cc(C(C)(C)c2ccc(OCCCCl)cc2)ccc1OCC(=O)CNS(C)(=O)=O [Compound A9] | ≥ 250 | ≥ 48 | ≥ 48 |
| CC(C)NC(=O)COc1ccc(C(C)(C)c2cc(Cl)c(OCCCCl)c(Cl)c2)cc1 [Compound A30] | ≥ 250 | < 12 | 12 to 48 |
| CN(CC(=O)CNS(C)(=O)=O)c1ccc(C(C)(C)c2cc(Cl)c(OCCCl)c(Cl)c2)cc1 [Compound A81, N-(3-((4-(2-(3,5-dichloro-4-(2-chloroethoxy)phenyl)propan-2-yl)phenyl) (methyl)amino)-2-oxopropyl)methanesulfonamide hydrochloride] | ≥ 250 | 12 to 48 | 12 to 48 |
| CC(C)(c1ccc(OCC(=O)C(F)(F)F)cc1)c1cc(Cl)c(OCCCCl)c(Cl)c1 [Compound A91, 3-(4-(2-(3,5-dichloro-4-(3-chloropropoxy)phenyl)propan-2-yl)phenoxy)-1,1,1-trifluoropropan-2-one] | ≥ 250 | – | < 12 |
| COc1cc(OCCCCl)ccc1C(C)(C)c1ccc(OCC(=O)CNS(C)(=O)=O)cc1 [Compound A4] | ≥ 250 | – | ≥ 48 |
| Cc1cc(OCCCCl)ccc1C(C)(C)c1ccc(OCC(=O)CNS(C)(=O)=O)cc1 [Compound A2] | 100 to 250 | ≥ 48 | ≥ 48 |
| Cc1cc(C(C)(C)c2ccc(OCC(=O)CNS(C)(=O)=O)cc2)ccc1OCCCCl [Compound A1] | < 100 | ≥ 48 | ≥ 48 |
| CC(O)(CCl)COc1c(Cl)cc(C(C)(C)c2ccc(NC(=O)C(=O)C(F)(F)F)cc2)cc1Cl (stereo not drawn) [Compound A95] | ≥ 250 | – | < 12 |
| CC(C)(c1ccc(OCC(=O)CNS(C)(=O)=O)cc1)c1ccc(OCCCCl)c(C#N)c1 [Compound A7] | < 100 | – | ≥ 48 |
| CC(C)(c1ccc(OCC(=O)N2CCN(S(C)(=O)=O)CC2)cc1)c1cc(Cl)c(OCCCCl)c(Cl)c1 [Compound A44] | ≥ 250 | – | 12 to 48 |
| CC(C)(c1ccc(NC(=O)C(=O)C(F)(F)F)cc1)c1cc(Cl)c(OCCCCl)c(Cl)c1 [Compound A93] | ≥ 250 | – | < 12 |
| CC(C)(Oc1ccc(C(C)(C)c2cc(Cl)c(OCCCCl)c(Cl)c2)cc1)C(=O)CNS(C)(=O)=O [Compound A63] | < 100 | – | ≥ 48 |
| CC(O)(CCl)COc1c(Cl)cc(C(C)(C)c2ccc(OCC(=O)CNS(C)(=O)=O)cc2)cc1Cl (stereo not drawn) [Compound A52, N-(3-(4-(2-(3,5-dichloro-4-(3-chloro-2-hydroxy-2-methylpropoxy)phenyl)propan-2-yl)phenoxy)-2-oxopropyl)methanesulfonamide] | < 100 | – | ≥ 48 |
| CC(C)(c1ccc(NCC(=O)CNS(C)(=O)=O)cc1)c1cc(Cl)c(OCCCCl)c(Cl)c1 [Compound A27] | ≥ 250 | 12 to 48 | ≥ 48 |

Results, then the compound that gave them:

| IC50 [1] [nM] | microsomal CLint at 1 μM [2] [µL/min/mg] | microsomal CLint at 1 μM [3] [µL/min/mg] | SMILES |
| --- | --- | --- | --- |
| < 100 | ≥ 48 | ≥ 48 | CC(C)(c1ccc(OCC(=O)CNS(C)(=O)=O)cc1)c1ccc(OCCCCl)c(Cl)c1 [Compound A5] |
| < 100 | 12 to 48 | < 12 | CC(C)(c1cccc(OCC(=O)CNS(C)(=O)=O)c1)c1ccc(Cl)c(OCCCCl)c1Cl [Compound A77] |
| ≥ 250 | ≥ 48 | ≥ 48 | CS(=O)(=O)NCC(=O)COc1ccccc1Cc1cc(Cl)c(OCCCCl)c(Cl)c1 [Compound A49] |
| ≥ 250 | 12 to 48 | 12 to 48 | CN(CC(=O)CNS(C)(=O)=O)c1ccc(C(C)(C)c2cc(Cl)c(OCCCCl)c(Cl)c2)cc1 [Compound A28] |
| ≥ 250 | ≥ 48 | ≥ 48 | CS(=O)(=O)NCC(=O)COc1ccc(Cc2cc(Cl)c(OCCCCl)c(Cl)c2)cc1 [Compound A21] |
| ≥ 250 | ≥ 48 | ≥ 48 | CS(=O)(=O)NCC(=O)COc1ccc(-c2cc(Cl)c(OCC(O)CCl)c(Cl)c2)cc1 (stereo not drawn) [Compound A25] |
| ≥ 250 | – | 12 to 48 | CC(C)(c1ccc(OCC(=O)NCCNS(C)(=O)=O)cc1)c1cc(Cl)c(OCCCCl)c(Cl)c1 [Compound A62] |
| ≥ 250 | – | ≥ 48 | CS(=O)(=O)NCC(=O)COc1cccc(Cc2ccc(Cl)c(OCCCCl)c2Cl)c1 [Compound A24] |
| ≥ 250 | – | ≥ 48 | CC(C)(c1ccc(OCCCCl)cc1)c1ccc(OCC(=O)CNS(C)(=O)=O)cc1Cl [Compound A14] |
| ≥ 250 | ≥ 48 | ≥ 48 | CC(C)(c1ccc(OCC(=O)CNS(C)(=O)=O)cc1)c1cc(Cl)c(CCCCCl)c(Cl)c1 [Compound A34] |
| ≥ 250 | ≥ 48 | ≥ 48 | CN(c1ccc(OCC(=O)CNS(C)(=O)=O)cc1)c1cc(Cl)c(OCCCCl)c(Cl)c1 [Compound A23] |
| < 100 | – | ≥ 48 | CC(C)(c1ccc(OCC(=O)CNS(C)(=O)=O)cc1)c1cc(Cl)c(OCCCl)c(Cl)c1 [Compound A33, N-(3-(4-(2-(3,5-dichloro-4-(2-chloroethoxy)phenyl)propan-2-yl)phenoxy)-2-oxopropyl)methanesulfonamide] |
